# Measured values published in paper PMC10578352, “Identification of a Protein Arginine Methyltransferase 7 (PRMT7)/Protein Arginine Methyltransferase 9 (PRMT9) Inhibitor” (Journal of Medicinal Chemistry, 2023).
# Tests used:
# [1] = target: T1, GST-HsPRMT9 (Homo sapiens, UniProt Q6P2P2); assay: Radioisotope-based assay (SDS-PAGE, fluorography, densitometry), HsPRMT9; assay type: biochemical
# T1 construct: made in house; host or cells: E. coli
# T1 sequence (Q6P2P2 1-845): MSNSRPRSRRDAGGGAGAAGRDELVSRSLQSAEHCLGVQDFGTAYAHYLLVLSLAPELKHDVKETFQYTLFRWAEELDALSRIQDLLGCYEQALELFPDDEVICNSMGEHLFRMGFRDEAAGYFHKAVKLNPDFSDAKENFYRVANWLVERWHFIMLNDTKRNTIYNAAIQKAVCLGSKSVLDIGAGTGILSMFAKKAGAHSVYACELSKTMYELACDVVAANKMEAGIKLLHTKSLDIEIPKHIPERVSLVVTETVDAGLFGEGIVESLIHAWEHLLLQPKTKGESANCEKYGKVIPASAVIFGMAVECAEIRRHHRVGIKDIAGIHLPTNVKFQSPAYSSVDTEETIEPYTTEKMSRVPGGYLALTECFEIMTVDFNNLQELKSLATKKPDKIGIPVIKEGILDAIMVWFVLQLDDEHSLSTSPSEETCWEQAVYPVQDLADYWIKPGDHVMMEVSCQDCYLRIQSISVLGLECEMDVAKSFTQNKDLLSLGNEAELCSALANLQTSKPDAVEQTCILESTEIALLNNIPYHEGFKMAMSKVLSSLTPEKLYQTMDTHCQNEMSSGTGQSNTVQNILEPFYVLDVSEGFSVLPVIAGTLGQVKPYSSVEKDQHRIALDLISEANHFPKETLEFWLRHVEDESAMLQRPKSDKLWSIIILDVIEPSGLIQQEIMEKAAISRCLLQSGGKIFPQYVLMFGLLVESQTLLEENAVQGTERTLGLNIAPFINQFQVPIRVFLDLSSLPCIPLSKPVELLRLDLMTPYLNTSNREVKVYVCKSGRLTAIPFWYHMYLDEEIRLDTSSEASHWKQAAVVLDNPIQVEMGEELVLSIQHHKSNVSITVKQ
# Description: (§1) Based on these outcomes, we resolved to explore the effect on the capability to inhibit PRMT9 enzymatic activity of further reduction of the distance between the pharmacophoric moieties. […] After the experiment was repeated with 100, 250, and 500 μM concentrations of each inhibitor, half inhibition was observed only at a concentration of roughly 250 μM (Figure 4d).
# (§2) […]. The experiments were performed as reported in the Experimental procedures section. GST-HsPRMT9 (a) and GST-HsPRMT7 (b) were incubated with human GST-SF3B2 (401–550) peptide or recombinant HsH2B, respectively (1 μg of enzyme, 5 μg of substrate), 0.14 μM [^3H]SAM, and the indicated concentrations of tested compounds at the corresponding optimal reaction temperature (37 °C for HsPRMT9, 15 °C for HsPRMT7). C. elegans GST-tagged enzymes PRMT9 (c) and PRMT7 (d) were incubated with GST-CeSFTB-2 (99–248) fragment or recombinant HsH2B, respectively (1 μg of enzyme, 5 μg of substrate), 0.14 μM [^3H]SAM, and the indicated concentrations of tested compounds at the corresponding optimal reaction temperature (25 °C for CePRMT9, 15 °C for CePRMT7). After SDS-PAGE, the gels were treated as previously described[48] and densitometry analysis was done using ImageJ software, and data was plotted as normalized activity to the no inhibitor controls.
# (§3) Human PRMT9, C. elegans PRMT9, human PRMT7, and C. elegans PRMT7 plasmids were sequenced, expressed in E. coli as GST-fusion proteins, and purified as previously described.[48] Substrates were also sequenced and purified as described [human GST-SF3B2 (401–550);[13]C. elegans SFTB-2;[48] human histone H2B (New England Biolabs, M2505S)]. Xenopus laevis histone H2B was expressed in E. coli and purified similarly to what was previously reported by Luger et al.[72]
# (§4) Reactions consisting of approximately 1 μg of enzyme (human or C. elegans GST-tagged enzymes PRMT9 and PRMT7), reacted with approximately 5 μg of substrate [for human PRMT9, human GST-SF3B2 401–550 fragment; C. elegans PRMT9 with C. elegans GST-SFTB-2 (99–248) fragment, or recombinant human histone H2B from New England Biolabs (M2505S)], were incubated for the indicated time in reaction buffer {50 mM potassium HEPES buffer, 10 mM NaCl, 1 mM dithiothreitol (DTT), pH 8.0 with 0.7 μM S-adenosyl-L-[methyl-^3H]methionine (^3H-AdoMet, PerkinElmer Life Sciences, 82.7 Ci/mmol, 0.55 mCi/mL in 10 mM H2SO4/EtOH [9:1 (v/v)])} in a final reaction volume of 60 μL. Each reaction was incubated at the corresponding optimal reaction temperature (37 °C for human PRMT9, 25 °C for C. elegans PRMT9, and 15 °C for C. elegans and human PRMT7 enzymes. MTA was dissolved in water, and a wavelength scan was taken to determine the final concentration using the extinction coefficient. The final concentrations used are indicated in the figure legends. […]. EML734, EML736, and EML709 were also dissolved in DMSO, and further dilutions were made in DMSO for the working stocks. For controls, no inhibitor reactions were created by the addition of the respective solvent (water for MTA and DMSO for EPZ015666 and EML inhibitors).
# (§5) After the reaction incubations with the various concentrations of inhibitors, the reactions were quenched by adding 0.2 volume of 5× SDS sample loading buffer, and subsequently, the reactions were run on a 12.6% polyacrylamide Tris gel. To collect the radioactive signal, the gels were then treated in the same way as previously described.[48]
# (§6) After various exposures were collected to ensure linear detection, densitometry analysis was done using ImageJ software, and data were plotted as normalized activity to the no inhibitor controls.
# [2] = target: T2, GST-HsPRMT7 (Homo sapiens, UniProt Q9NVM4); assay: Radioisotope-based assay (SDS-PAGE, fluorography, densitometry), HsPRMT7; assay type: biochemical; conditions: substrate HsH2B, 15 °C, read-out: % HsPRMT7 residual activity
# T2 construct: made in house; host or cells: E. coli
# T2 sequence (Q9NVM4 1-692): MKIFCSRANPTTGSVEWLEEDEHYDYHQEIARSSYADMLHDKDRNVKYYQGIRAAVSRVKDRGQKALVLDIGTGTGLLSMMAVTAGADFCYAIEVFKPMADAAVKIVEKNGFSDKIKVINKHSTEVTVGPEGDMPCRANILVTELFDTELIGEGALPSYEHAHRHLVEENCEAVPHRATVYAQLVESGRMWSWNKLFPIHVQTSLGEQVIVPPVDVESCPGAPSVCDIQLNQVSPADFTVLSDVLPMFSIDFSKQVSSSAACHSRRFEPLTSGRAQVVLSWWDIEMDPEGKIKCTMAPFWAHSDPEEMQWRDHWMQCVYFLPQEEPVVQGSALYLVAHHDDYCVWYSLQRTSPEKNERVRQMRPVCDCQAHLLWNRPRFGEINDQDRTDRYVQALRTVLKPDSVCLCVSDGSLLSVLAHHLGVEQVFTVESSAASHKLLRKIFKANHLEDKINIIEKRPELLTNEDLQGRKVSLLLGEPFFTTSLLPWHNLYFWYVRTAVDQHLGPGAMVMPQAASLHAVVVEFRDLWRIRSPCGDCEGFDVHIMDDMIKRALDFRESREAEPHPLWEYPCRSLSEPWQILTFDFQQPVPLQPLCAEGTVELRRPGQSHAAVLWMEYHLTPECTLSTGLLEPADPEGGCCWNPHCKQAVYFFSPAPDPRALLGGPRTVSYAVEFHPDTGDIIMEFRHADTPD
# Description: as §1, §2, §3, §4
# as §5, with “described.[48] […]” for “described.[48]”
# [3] = test system: CePRMT9; assay: Radioisotope-based assay (SDS-PAGE, fluorography, densitometry), CePRMT9; assay type: biochemical, Caenorhabditis elegans; conditions: substrate GST-CeSFTB-2 (99–248), 25 °C
# Description: as §1, §2, §3, §4, §5, §6
# [4] = target: T3, CePRMT7 (Caenorhabditis elegans, UniProt Q9XW42); assay: Radioisotope-based assay (SDS-PAGE, fluorography, densitometry), CePRMT7; assay type: biochemical; conditions: 100 uM; substrate HsH2B, 15 °C; read-out: % CePRMT7 residual activity
# T3 construct: made in house; host or cells: E. coli
# Description: as §1, §2, §3, §4, §5, §6
# [5] = target: T4, ASH1L/KMT2H (Homo sapiens, UniProt Q9NR48); assay: HotSpot KMT activity assay, ASH1L; assay type: biochemical
# T4 construct: the human recombinant ASH1L (residues 2046–2330, with an N-terminal His-tag); His (N); purchased Reaction Biology Corporation
# Text: ; MW = 35.4 kDa; Genbank Accession # NM_018489), or the human recombinant EZH2-containing five-member polycomb repressive complex 2 (including EZH2 residues 2–746, AEBP2 2–517, EED 2–441, RbAp48 2–425, SUZ12 2–739; all full-length; with N-terminal Flag-tag on EED and N-terminal His-tag on all others; MW = 333.8 kDa; Genbank Accession # NM_001203247, NM_001114176, NM_003797, NM_005610, NM_015355), or the human recombinant G9a (residues 913–1193, C-terminus; with an N-terminal His-tag; MW = 34.6 kDa; Genbank Accession # NM_006709.3), or the human recombinant MLL1 complex (including MLL1 residues 3745–3969, C-terminus, WDR5 22–334, C-terminus, RbBP5 1–538, C-terminus, ASH2L 2–534, C-terminus, DPY-30 1–99, C-terminus; N-terminal His-tag on all subunits; MW = 212.0 kDa; Genbank Accession # NM_005933, NM_017588, NM_005057, NM_001105214, NM_0325742), or the human recombinant SET7/9 (residues 2–366, C-terminus; with a N-terminal GST-tag and a C-terminal His-tag; MW = 68.5 kDa; Genbank Accession # NM_030648), or the human recombinant SMYD3 (residues 2–428, C-terminus; C-terminal His-tag; MW = 50.1 kDa; Genbank Accession # NM_001167740), or the human recombinant SUV39H2 (residues 46–410, C-terminus; N-terminal fusion protein with a C-terminal His-tag; MW = 98.8 kDa; GenBank Accession No. NM_001193424), or the human recombinant DOT1L (residues 1–416; N-terminal GST-tag; MW = 80.0 kDa; Genbank Accession # NM_032482) was added to a solution of the proper substrate (oligo nucleosomes for ASH1L, MLL1 complex, and DOT1L, final concentration 0.05 mg/mL; core histone for EZH2 complex and SET7/9, final concentration 0.05 mg/mL; histone H3 for SUV39H2, final concentration 5 μM; histone H3 1–21 for G9a, final concentration 2.5 μM) in freshly prepared reaction buffer (50 mM Tris-HCl (pH 8.5), 5 mM MgCl2, 50 mM NaCl, 1 mM DTT, 1 mM PMSF, 1% DMSO) and gently mixed. […] After incubation for 60 min at 30 °C, the reaction mixture was delivered to filter paper for detection (as assessed by scintillation). […] Values obtained for each compound are mean ± SD determined for two separate experiments.
# [6] = substrate GST-SF3B2 (401–550), 37 °C, read-out: % HsPRMT9 residual activity
# T3 sequence (Q9XW42 whole entry): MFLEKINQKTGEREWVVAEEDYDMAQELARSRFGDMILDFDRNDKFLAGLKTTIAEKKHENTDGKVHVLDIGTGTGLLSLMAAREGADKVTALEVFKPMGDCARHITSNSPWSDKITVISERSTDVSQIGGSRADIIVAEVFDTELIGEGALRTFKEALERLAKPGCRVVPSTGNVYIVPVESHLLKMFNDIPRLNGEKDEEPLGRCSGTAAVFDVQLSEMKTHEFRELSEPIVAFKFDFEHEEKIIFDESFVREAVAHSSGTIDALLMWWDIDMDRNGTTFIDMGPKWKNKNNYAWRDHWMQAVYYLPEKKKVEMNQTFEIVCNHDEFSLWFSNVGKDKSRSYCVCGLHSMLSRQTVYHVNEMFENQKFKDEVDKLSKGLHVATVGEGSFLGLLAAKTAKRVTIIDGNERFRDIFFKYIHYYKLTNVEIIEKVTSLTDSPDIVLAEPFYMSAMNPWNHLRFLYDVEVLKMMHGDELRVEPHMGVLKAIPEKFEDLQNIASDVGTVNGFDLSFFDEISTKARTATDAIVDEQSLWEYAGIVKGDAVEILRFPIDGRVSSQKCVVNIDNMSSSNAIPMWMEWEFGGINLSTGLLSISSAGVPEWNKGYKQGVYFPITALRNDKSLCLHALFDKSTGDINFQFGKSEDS
SMILES,"remaining activity at 100 µM [1, 6]","remaining activity at 250 µM ([1]; 250 uM, substrate GST-SF3B2 (401–550), 37 °C, read-out: % HsPRMT9 residual activity)","remaining activity at 500 µM ([1]; 500 uM, substrate GST-SF3B2 (401–550), 37 °C, read-out: % HsPRMT9 residual activity)",inhibition of HsPRMT9 (in words) ([1]; up to 500 μM),remaining activity at 100 µM [2],% CePRMT9 residual activity ([3]; 100 uM),% CePRMT9 residual activity ([3]; 250 uM),% CePRMT9 residual activity ([3]; 500 uM),remaining activity at 100 µM [4],inhibition of HsPRMT9 (in words) ([1]; 100 μM),IC50 [5]
"O=C(NC[C@H](O)CN1CCc2ccccc2C1)c1cc(NC2COC2)ncn1 [EPZ015666, reference compound]",99.8%,105%,98%,inactive,120%,139.23%,132.20%,105.26%,131%,–,–
"CSC[C@H]1O[C@@H](n2cnc3c(N)ncnc32)[C@H](O)[C@@H]1O [MTA, 5′-Deoxy-5′-(methylthio)adenosine, reference compound]",26%,–,–,–,46.8%,23.57%,–,–,130%,good inhibition only at 100 μM,–
"CN1C(=O)[C@@]23C[C@]4([C@]56C[C@@]78SS[C@@](CO)(C(=O)N7[C@H]5Nc5ccccc56)N(C)C8=O)c5ccccc5N[C@@H]4N2C(=O)[C@]1(CO)SS3 [chaetocin, reference compound]",–,–,–,–,–,–,–,–,–,–,0.025 µM
